System: Gram negative bacteria (Salmonella isolates)
Test: Biofilm formation in polystyrene microtiter plates (crystal violet, OD595), Gram negative bacteria
Type: cell-based, Salmonella ser. Typhimurium, Salmonella ser. Agona
Settings: two days at 20 °C
Procedure: All experiments were performed by using sterile 96-wells polystyrene microtiter plates (Nunc, Nuncleon, Roskilde, Denmark) under conditions promoting biofilm formation by the different bacterial genera. The Inhibio compound preparations of the invention; 1,3-cyclohexanedione, 1,4-cyclohexanedione, cyclopentanone, 5-ethylcyclohexane-1,3-dione and 5-methyl-1,3 cyclohexanedione 98% were solved directly in Tryptic Soy Broth (TSB) 1+1 or Liquid Microbiology Broth (LB) broth without NaCl (LB^wo/NaCl) to obtain the test concentrations, i.e. from 1 mg/ml to 10 mg/ml.
One Salmonella ser. Typhimurium (S. Typhimurium), two Salmonella ser. Agona (S. Agona) and two Escherichia coli (E. coli) isolates were used in these studies. The studies performed using 1,3-cyclohexanedione and 1,4-cyclohexanedione were done on Salmonella isolates only. The studies comparing Menthone to 1,3-cyclohexanedione were using two E. coli strains, E. coli 1242 and E. coli 1153, see FIG. 11. The Salmonella isolates were isolated from Norwegian feed factories except one S. Typhimurium strain which was a culture collection strain (ATCC 14028). The E. coli isolates were of animal origin. All strains were stored at −80° C. in BHI supplemented with 15% glycerine and were recovered on blood agar at 37.0±1.0° C. The bacterial cultures were then transferred into LB broth and incubated statically overnight at 37.0±1.0° C. to obtain an overnight working culture. A total of 30 μl of this suspension was transferred to each well in 96 wells polystyrene microtiter plates (Nunc, Nuncleon, Roskilde, Denmark) in triplets. The wells were containing 100 μl LB^wo/NaCl (bacto-tryptone 10 g/l, yeast extract 5 g/l) with 1,3-cyclohexanedione dissolved in concentration 0 mg/ml, 1 mg/ml and 10 mg/ml in the total amount of broth and 1,4-cyclohexanedione and cyclopentanone at 0 mg/ml and 10 mg/ml. The microtiter plates were incubated statically for two days, at 20±1.0° C. After incubation, OD595 was measured before the plates were gently washed one time with 150 μl tap water. The plates were dried in room temperature before addition of 140 μl 1% crystal violet (Sigma-Aldrich). After 30 minutes incubation in room temperature, the plates were washed three times with tap water before addition of 140 μl ethanol:acetone (70:30 w:w) and incubated for another 10 minutes in room temperature. OD595 was measured in a microplate photometer (Multiscan EX) after the bound dye was dissolved using ethanol:acetone. For each strain, the result was calculated by subtracting the median OD595 of the three parallels of the control (test broth only) from the median OD595 of the three parallels of sample. Further, the averages of the Gram negative strains were calculated. Three independent experiments were performed and the average was evaluated.

## O=C1CCCC(=O)C1 [1,3-cyclohexanedione]
1 mg/ml
  decrease in biofilm formation, percentage of the control: 70%
10 mg/ml
  decrease in biofilm formation, percentage of the control: 87%
